Drawing on ChEMBL document CHEMBL1140682, “A novel series of potent cytotoxic agents targeting G2/M phase of the cell cycle and demonstrating cell killing by apoptosis in human breast cancer cells” (Bioorg Med Chem Lett, 2007), this text covers Activity and IC50 for 1 compound.

Assay [1] has as its system MDA-MB-468. Briefly: Induction of apoptosis in MDA-MB-468 cells assessed as p53 levels at 8.0 uM. Format: functional, cell-based. The following applies: Homo sapiens.
Assay [2] deals with MDA-MB-468. Briefly: Cell cycle arrest in MDA-MB-468 cells by accumulation at G0/G1 phase at 8.0 uM after 24 hrs. Format: functional, Homo sapiens.
Assay [3] relates to MDA-MB-468. Briefly: Cell cycle arrest in MDA-MB-468 cells by accumulation at S phase at 8.0 uM after 24 hrs. Format: functional, Homo sapiens.
For assay [4], the system named is MDA-MB-468. Briefly: Induction of apoptosis in MDA-MB-468 cells assessed as alteration in p53 localization. Format: functional, cell-based. The following applies: Homo sapiens.
For assay [5], the system named is MDA-MB-468. Briefly: Induction of apoptosis in MDA-MB-468 cells assessed as nuclear condensation at 8.0 uM after 24 hrs by electron microscopy. Format: functional, cell-based. The following applies: Homo sapiens.
Assay [6] has as its system MDA-MB-468. Briefly: Induction of apoptosis in MDA-MB-468 cells assessed as vacuolization at 8.0 uM after 24 hrs by electron microscopy. Format: functional, cell-based. The following applies: Homo sapiens.
The test system of assay [7] is MDA-MB-468. Briefly: Cell cycle arrest in MDA-MB-468 cells by accumulation at S phase at 0.5 uM after 24 hrs. Format: functional, Homo sapiens.
In assay [8] the test system is MDA-MB-468. Briefly: Cell cycle arrest in MDA-MB-468 cells by accumulation at G0/G1 phase at 4.0 uM after 24 hrs. Format: functional, Homo sapiens.
The subject of assay [9] is MDA-MB-468. Briefly: Cell cycle arrest in MDA-MB-468 cells by accumulation at G2/M phase at 0.5 uM after 24 hrs. Format: functional, Homo sapiens.
Assay [10] deals with MDA-MB-468. Briefly: Cell cycle arrest in MDA-MB-468 cells by accumulation at G2/M phase at 4.0 uM after 24 hrs. Format: functional, Homo sapiens.
The test system of assay [11] is MDA-MB-468. Briefly: Induction of apoptosis in MDA-MB-468 cells assessed as DNA fragmentation after 24 hrs by TUNEL assay. Format: functional, cell-based. The following applies: Homo sapiens.
In assay [12] the test system is MDA-MB-468. Briefly: Induction of apoptosis in MDA-MB-468 cells assessed as blebbing at 8.0 uM after 24 hrs by electron microscopy. Format: functional, cell-based. The following applies: Homo sapiens.
For assay [13], the system named is MDA-MB-468. Briefly: Cell cycle arrest in MDA-MB-468 cells by accumulation at G0/G1 phase at 0.5 uM after 24 hrs. Format: functional, Homo sapiens.
For assay [14], the system named is MDA-MB-468. Briefly: Cell cycle arrest in MDA-MB-468 cells by accumulation at S phase at 4.0 uM after 24 hrs. Format: functional, Homo sapiens.
Assay [15] concerns MDA-MB-468. Briefly: Cell cycle arrest in MDA-MB-468 cells by accumulation at G2/M phase at 8.0 uM after 24 hrs. Format: functional, Homo sapiens.
In assay [16] the test system is MDA-MB-468. Briefly: Induction of apoptosis in MDA-MB-468 cells assessed as apoptotic bodies at 8.0 uM after 24 hrs by electron microscopy. Format: functional, cell-based. The following applies: Homo sapiens.
For assay [17], the system named is MDA-MB-468. Briefly: Inhibition of human ER negative MDA-MB-468 cells by MTT assay. Format: functional, cell-based. Background: Formazan colour is commonly taken as a measure of viable cells.
The subject of assay [18] is MDA-MB-468. Briefly: Cell cycle arrest in MDA-MB-468 cells by accumulation at G2/M phase at 1.0 to 2.0 uM by flow cytometry. Format: functional, cell-based. The following applies: Homo sapiens. (In general: In flow cytometry, cells or beads pass a laser one at a time.)

Activity calls are given as the source filed them. No cut-off for these calls is given here.

With `c1ccc(Sc2nc(Sc3ccccn3)nc(Sc3ccccn3)n2)nc1`, the outcome in the assay on MDA-MB-468 [1] was inactive. The Activity with MDA-MB-468 [2] is 36.3%; in the assay with MDA-MB-468 [3], 20.8%; with MDA-MB-468 [4], “Dose-dependent effect”; in the assay with MDA-MB-468 [7] it was 29.2%; in the assay with MDA-MB-468 [8], 33.6%; in the assay on MDA-MB-468 [9], 21.8%. Besides, the Activity with MDA-MB-468 [10] was 40.5%; in the assay with MDA-MB-468 [11], “Dose-dependent effect”; with MDA-MB-468 [13], 49%; with MDA-MB-468 [14] it was 25.9%; in the assay on MDA-MB-468 [15], 42.9%. Also, the outcome in the assay with MDA-MB-468 [5], in the assay on MDA-MB-468 [6], in the assay with MDA-MB-468 [12], in the assay with MDA-MB-468 [16] and with MDA-MB-468 [18] was Active. Also, half-maximal inhibition with MDA-MB-468 [17] (IC50) was put at 1600 nM.
